Paper PMC7179439, “Synthesis and Structure-Activity Relationship Studies of Hydrazide-Hydrazones as Inhibitors of Laccase from Trametes versicolor” (Molecules, 2020)
Several values for one entry are separate records, joined by “and”; a condition that tells them apart may be missing. Identical values can stand only once. Like-named read-outs stand apart in the source and are kept apart here.

Legend:
[1] = target: laccase from Trametes versicolor; assay: Laccase enzyme inhibition assay with syringaldazine as substrate; format: biochemical; design: key to The type of inhibition: a: competitive; b: uncompetitive; c: not determined; d: non-competitive; conditions: for Ki: 25 °C, pH 5.3, syringaldazine substrate, 6.25% v/v organic co-solvent; for The type of inhibition / type of inhibition: Lineweaver-Burk transformation
Experimental: The activity of laccase was determined using the procedure described by Leonowicz and Grzywnowicz. Basically, a standard reaction mixture contained the enzyme in McIlvaine buffer (1.5 mL, pH 5.3) in the presence or absence of tested compounds (0.1 mL) and substrate – syringaldazine (0.1 mL). Two water-miscible media were tested as suitable co-solvents for hydrazide-hydrazones which are poorly soluble in water. For that purpose, the stability of laccase (40 nM, McIlvaine buffer, pH 5.3) in methanol and DMSO (6.25% v/v) at 25 °C was investigated (see Supplementary Material). The samples containing the enzyme, with a volumetric buffer–co-solvent ratio of 15:1, were withdrawn in different time intervals for 1500 min. A reaction system contained the 1.6 mL of the collected sample and 0.1 mL of syringaldazine (5.9 µM). Laccase activity was determined spectrophotometrically (UV-VIS 1800, Shimadzu, Reinach, Switzerland) by monitoring the changes in absorbance at 525 nm resulted from oxidation of the substrate syringaldazine with an extinction coefficient ε0 = 65000 M^−1·cm^−1 [99]. Kinetic parameters, Km and k3 were determined for two protein concentrations (20 and 40 nM) and with the nine concentrations of syringaldazine (0.59 to 20 µM), using the Michaelis-Menten model, Equation (1):V = Vmax · CS/(Km + CS), k3 = Vmax/CE(1) where Km [µM], k3 [min^–1] – kinetic constants, Vmax – maximal velocity [µM·min^–1], CS – substrate concentration [µM], CE – enzyme concentration [µM].
The parameters of the function were estimated using the nonlinear least square method in Matlab (The Mathworks, R2019a Version 9.6, academic licence). The method was used simultaneously for datasets obtain for different enzyme concertation. The common minimum of error function was found for all considered datasets resulting in one common estimate of each model parameter. The goodness of fit was assessed using the coefficient of determination (R^2); the sum of squared errors (SSE) and root mean squared error (RMSE). The 25 hydrazide-hydrazones, 4-hydroxybenzoic acid (control, 4-HBA), 4-hydroxybenzohydrazide (4a – 4-HBAH), and sodium azide (control) were tested against laccase in the standard reaction mixture. Prior to the substrate addition, the laccase and tested compound were pre-incubated for 10 min at 25 °C. At least three inhibitor concentrations were used in each experiment. All measurements were performed in triplicate. To determine the type of inhibition Lineweaver–Burk transformation was used applying the following equations for competitive (2), uncompetitive (3) and non-competitive model (4). The parameters of these equations were estimated using the linear least square method. 1/V = Km/Vmax · (1 + Ci/Ki) · 1/CS + 1/Vmax(2) 1/V = Km/Vmax · 1/CS + 1/Vmax · (1 + Ci/Ki)(3) 1/V = Km/Vmax · (1 + Ci/Ki) · 1/CS + 1/Vmax · (1 + Ci/Ki)(4) where Km [µM]—Michaelis-Menten constant, Vmax—maximal velocity [µM·min^–1], Ki—inhibition constant [µM], CS—substrate concentration [µM], Ci—inhibitor concentration [µM].

[2] = tested on: laccase from Pleurotus eryngii; conditions: cited from earlier work; for Ki: ABTS as substrate, mixed type of inhibition ref 85
[3] = target: laccase from Pleurotus ostreatus; conditions: ABTS as substrate ref 86; cited from earlier work

Row | Compound | melting point | Ki [1] [µM] | The type of inhibition [1] | type of inhibition [1] | other results
1 | COc1cccc(/C=N/NC(=O)c2ccc(O)cc2)c1 (hydrate or solvate) [1i, 4-Hydroxy-N’-[(E)-(3-methoxyphenyl)methylidene]benzohydrazide] | 210 to 212 °C | – | – | – | –
2 | O=C(N/N=C/c1cccc(-c2ccccc2)c1O)c1ccc(O)cc1 (hydrate or solvate) [2a, 4-Hydroxy-N’-[(E)-(2-hydroxy-3-phenyl-phenyl)methylidene]benzohydrazide monomethanolate] | 215 to 218 °C | – | – | – | –
3 | O=C(N/N=C/c1ccccc1)c1ccc(O)cc1 [1a, 4-Hydroxy-N’-[(E)-benzylidene]benzohydrazide] | – | 1470 ± 58 | a | – | –
4 | O=C(N/N=C/CCc1ccccc1)c1ccc(O)cc1 [1b, 4-Hydroxy-N’-[(E)-3-phenylpropylidene]benzohydrazide] | 243.5 to 244 °C | 1920 ± 163 | b | – | –
5 | Cc1ccc(/C=N/NC(=O)c2ccc(O)cc2)cc1 [1c, 4-Hydroxy-N’-[(E)-(4-methylphenyl)methylidene]benzohydrazide monomethanolate] | – | 251 ± 26 | a | competitive | –
6 | O=C(N/N=C/c1ccccc1S(=O)(=O)[O-])c1ccc(O)cc1.[Na+] [1d, Sodium 2-{(E)-[2-(4-hydroxybenzoyl)hydrazinylidene]methyl}benzenesulfonate] | 251 °C (dec.) | ≥ 2400 | – | – | –
7 | O=C(N/N=C/c1ccccc1O)c1ccc(O)cc1 [1e, 4-Hydroxy-N’-[(E)-(2-hydroxyphenyl)methylidene]benzohydrazide] | – | 674 ± 10 | a | competitive | –
8 | O.O=C(N/N=C/c1cccc(O)c1)c1ccc(O)cc1 [1f, 4-Hydroxy-N’-[(E)-(3-hydroxyphenyl)methylidene]benzohydrazide monohydrate] | – | 2400 ± 334 | a | – | –
9 | O=C(N/N=C/c1ccc(O)cc1)c1ccc(O)cc1 [1g, 4-Hydroxy-N’-[(E)-(4-hydroxyphenyl)methylidene]benzohydrazide] | – | 638 ± 35 | b | – | –
10 | COc1ccccc1/C=N/NC(=O)c1ccc(O)cc1 [1h, 4-Hydroxy-N’-[(E)-(2-methoxyphenyl)methylidene]benzohydrazide] | – | 1060 ± 18 | a | – | –
11 | COc1cccc(/C=N/NC(=O)c2ccc(O)cc2)c1 [1i, 4-Hydroxy-N’-[(E)-(3-methoxyphenyl)methylidene]benzohydrazide] | – | 416 ± 1.5 | a | competitive | –
12 | O=C(N/N=C/c1cccc(-c2ccccc2)c1O)c1ccc(O)cc1 [2a, 4-Hydroxy-N’-[(E)-(2-hydroxy-3-phenyl-phenyl)methylidene]benzohydrazide monomethanolate] | – | 25.3 ± 6.9 | a | competitive | –
13 | CC(C)(C)c1cccc(/C=N/NC(=O)c2ccc(O)cc2)c1O [2b, 4-Hydroxy-N’-[(E)-(3-tert-butyl-2-hydroxyphenyl)methylidene]benzohydrazide] | 240 to 242 °C | 24 ± 5.9 | a | competitive | –
14 | O=C(N/N=C/c1ccc(O)cc1O)c1ccc(O)cc1 [2c, 4-Hydroxy-N’-[(E)-(2,4-dihydroxyphenyl)methylidene]benzohydrazide] | 294 °C (dec.) | 939 ± 30 | b | uncompetitive | inhibitory potency towards laccase [1]: practically inactive
15 | O=C(N/N=C/c1cc(Br)ccc1O)c1ccc(O)cc1 [2d, 4-Hydroxy-N’-[(E)-(5-bromo-2-hydroxyphenyl)methylidene]benzohydrazide] | 276 to 278 °C | ≥ 1000 | – | – | –
16 | COc1cccc(O)c1/C=N/NC(=O)c1ccc(O)cc1 [2e, 4-Hydroxy-N’-[(E)-(6-methoxy-2-hydroxyphenyl)methylidene]benzohydrazide] | 256.5 to 257.5 °C | ≥ 1000 | – | – | –
17 | COc1cccc(OC)c1/C=N/NC(=O)c1ccc(O)cc1 [2f, 4-Hydroxy-N’-[(E)-(2,6-dimethoxyphenyl)methylidene]benzohydrazide] | 214.5 to 216 °C | ≥ 1000 | – | – | inhibitory potency towards laccase [1]: practically inactive
18 | COc1cc(/C=N/NC(=O)c2ccc(O)cc2)ccc1O [2g, 4-Hydroxy-N’-[(E)-(4-hydroxy-3-methoxyphenyl)methylidene]benzohydrazide] | 218.5 to 220 °C | 251 ± 38 | a | competitive | –
19 | COc1ccc(C(=O)N/N=C/c2cccc(-c3ccccc3)c2O)cc1 [2h, 4-Methoxy-N’-[(E)-2-hydroxy-3-phenyl-benzylidene]benzohydrazide] | 240 to 242.5 °C | ≥ 1000 | – | – | –
20 | O=C(O)c1ccc(O)cc1 [4-HBA, 4-hydroxybenzoic acid, reference compound] | – | ≥ 2400 | – | – | inhibitory potency towards laccase [1]: no inhibitory potency
21 | [N-]=[N+]=[N-].[Na+] [NaN3, sodium azide] | – | 2.72 ± 0.3 | d | non-competitive | type of inhibition ([2]; ABTS as substrate ref 85): mixed type of inhibition; Ki ([2]; read-out: Kic): 17.6 µM; Ki ([2]; read-out: Kiu): 10.6 µM; Ki [3]: 16.5 µM; type of inhibition [3]: non-competitive

Further lines, with some results ahead:

Row | melting point | Ki [1] [µM] | The type of inhibition [1] | type of inhibition [1] | Compound | other results
22 | 229 to 230 °C | ≥ 1000 | – | – | Cc1cc(/C=N/NC(=O)c2ccc(O)cc2)c(O)c(CO)c1 [3a, 4-Hydroxy-N’-[(E)-2-hydroxy-3-hydroxymethyl-5-methyl-benzylidene]benzohydrazide] | –
23 | 266 °C (dec.) | ≥ 1000 | – | – | Cc1cc(CO)cc(/C=N/NC(=O)c2ccc(O)cc2)c1O [3b, 4-Hydroxy-N’-[(E)-(5-hydroxymethyl-3-methyl-2-hydroxyphenyl)methylidene]benzohydrazide] | –
24 | 274.5 to 275.5 °C | 17.9 ± 1.3 | b | – | CC(C)(C)c1cc(/C=N/NC(=O)c2ccc(O)cc2)c(O)c(C(C)(C)C)c1 [3c, 4-Hydroxy-N’-[(E)-(3,5-di-tert-butyl-2-hydroxyphenyl)methylidene]benzohydrazide] | –
25 | 261 to 263 °C and 261 to 262 °C | 26.4 ± 3.4 | a | competitive | Cc1cc(/C=N/NC(=O)c2ccc(O)cc2)c(O)c(C(C)(C)C)c1 [3d, 4-Hydroxy-N’-[(E)-3-tert-butyl-2-hydroxy-5-methylbenzylidene]benzohydrazide] | –
26 | 258.5 to 260.5 °C | ≥ 1000 | – | – | Cc1ccc(C(C)C)c(O)c1/C=N/NC(=O)c1ccc(O)cc1 [3e, 4-Hydroxy-N’-[(E)-(2-hydroxy-3-isopropyl-6-methylphenyl)methylidene]benzohydrazide] | –
27 | 231.5 to 234.5 °C | ≥ 1000 | – | – | COc1cc(O)c(/C=N/NC(=O)c2ccc(O)cc2)c(OC)c1 [3f, 4-Hydroxy-N’-[(E)-(2-hydroxy-4,6-dimethoxyphenyl)methylidene]benzohydrazide] | –
28 | 240 to 242.5 °C | 32 ± 8 | d | non-competitive | Cc1cc(/C=N/NC(=O)c2cccc(O)c2)c(O)c(C(C)(C)C)c1 [3g, 3-Hydroxy-N’-[(E)-(3-tert-butyl-2-hydroxy-5-methylphenyl)methylidene]benzohydrazide] | –
29 | – | ≥ 2400 | – | – | COc1ccc(C(=O)NN)cc1 [4b, reference compound] | inhibitory potency towards laccase [1]: no inhibitory potency
